Laboratory results from the supplement of paper PMC10307832.

compound: CC(C)(C)c1nc(-c2cccc(NS(=O)(=O)c3c(F)cccc3F)c2F)c(-c2ccnc(N)n2)s1 [Dabrafenib] + COc1cc2c(Oc3ccc(NC(=O)C4(C(=O)Nc5ccc(F)cc5)CC4)cc3F)ccnc2cc1OCCCN1CCOCC1 [Foretinib] (partner 0.25 µM); test: relative viability (nuclei count vs DMSO), 5 days (fraction); higher = more cells survive; conditions: first compound 0.3 µM
Outline: (§1)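 For relative viability, nuclei counts in treated wells were divided by those in vehicle wells. Lung cancer cell lines had been pin-tool dosed in 1536-well plates the day after seeding and cultured for 5 days, then fixed and stained in one step (final 0.05% Triton X-100, 1% formaldehyde, 1 ug/ml Hoechst) and imaged at 4×. Doses were one drug alone or a fixed anchor-drug dose plus five library-drug doses (not always all listed) in √10 steps, and values are duplicate-plate medians.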

How did the relative viability turn out when NCI-H322M was run?
Its relative viability is 0.945.

With HARA as the cell line, how does the relative viability read?
Its relative viability is 0.972.

With NCI-H1395 as the cell line, how does the relative viability read?
The relative viability was 0.82.

compound: CC(C)(C)c1nc(-c2cccc(NS(=O)(=O)c3c(F)cccc3F)c2F)c(-c2ccnc(N)n2)s1 [Dabrafenib] + Cc1cc(Nc2cc(N3CCN(C)CC3)nc(Sc3ccc(NC(=O)C4CC4)cc3)n2)n[nH]1 [Tozasertib] (partner 0.1 µM); test: as above; conditions: first compound 0.003 µM
Outline: as §1

How did the relative viability turn out when NCI-H460 was run?
Its relative viability is 0.0459.

With H3255 as the cell line, how does the relative viability read?
The relative viability was 0.507.

With NCI-H838 as the cell line, how does the relative viability read?
The relative viability was 0.29.

With EPLC-272H as the cell line, how does the relative viability read?
Its relative viability is 0.345.

NCI-H3122 was tested. Which relative viability did it give?
The relative viability was 0.427.

How did the relative viability turn out when NCI-H1915 was run?
Its relative viability is 0.46.

With NCI-H1975 as the cell line, how does the relative viability read?
The relative viability was 0.778.

How did the relative viability turn out when LK-2 was run?
The relative viability was 0.182.

Which relative viability does the source give for HCC-366 here?
Its relative viability is 0.088.

For LCLC-97TM1, which relative viability is on record?
Its relative viability is 0.218.

NCI-H1993 was tested. Which relative viability did it give?
The relative viability was 0.484.

PC-3 [JPC-3] was tested. Which relative viability did it give?
The relative viability was 0.934.

How did the relative viability turn out when LXF-289 was run?
The relative viability was 0.192.

Which relative viability does the source give for NCI-H358 here?
Its relative viability is 0.102.

With 201T as the cell line, how does the relative viability read?
Its relative viability is 1.02.

For NCI-H1666, which relative viability is on record?
The relative viability was 0.562.

For HARA, which relative viability is on record?
The relative viability was 0.101.

For NCI-H1395, which relative viability is on record?
The relative viability was 0.718.

same assay, conditions: first compound 0.009487 µM

Which relative viability does the source give for NCI-H460 here?
The relative viability was 0.482.

How did the relative viability turn out when H3255 was run?
The relative viability was 0.675.

Which relative viability does the source give for NCI-H1793 here?
The relative viability was 0.464.

Which relative viability does the source give for NCI-H23 here?
Its relative viability is 0.431.

Which relative viability does the source give for NCI-H838 here?
Its relative viability is 0.34.

With EPLC-272H as the cell line, how does the relative viability read?
The relative viability was 0.326.

NCI-H3122 was tested. Which relative viability did it give?
The relative viability was 0.449.

How did the relative viability turn out when NCI-H1915 was run?
The relative viability was 0.458.

For NCI-H727, which relative viability is on record?
The relative viability was 0.754.

NCI-H1975 was tested. Which relative viability did it give?
Its relative viability is 0.769.

With LK-2 as the cell line, how does the relative viability read?
The relative viability was 0.174.

Which relative viability does the source give for HCC-366 here?
The relative viability was 0.187.

With NCI-H2087 as the cell line, how does the relative viability read?
The relative viability was 0.306.

For LCLC-97TM1, which relative viability is on record?
The relative viability was 0.209.

How did the relative viability turn out when NCI-H2405 was run?
Its relative viability is 0.799.

NCI-H1993 was tested. Which relative viability did it give?
Its relative viability is 0.586.

Which relative viability does the source give for PC-3 [JPC-3] here?
The relative viability was 0.957.

NCI-H2347 was tested. Which relative viability did it give?
The relative viability was 0.548.

For LXF-289, which relative viability is on record?
Its relative viability is 0.178.

NCI-H358 was tested. Which relative viability did it give?
The relative viability was 0.0949.

With LC-2-ad as the cell line, how does the relative viability read?
The relative viability was 0.453.

How did the relative viability turn out when 201T was run?
The relative viability was 0.915.

How did the relative viability turn out when NCI-H1666 was run?
The relative viability was 0.637.

For NCI-H322M, which relative viability is on record?
The relative viability was 0.49.

HARA was tested. Which relative viability did it give?
Its relative viability is 0.116.

With NCI-H1395 as the cell line, how does the relative viability read?
Its relative viability is 0.633.

same assay, conditions: first compound 0.03 µM

How did the relative viability turn out when NCI-H460 was run?
Its relative viability is 0.436.

How did the relative viability turn out when H3255 was run?
The relative viability was 0.721.

NCI-H23 was tested. Which relative viability did it give?
Its relative viability is 0.344.

For NCI-H838, which relative viability is on record?
Its relative viability is 0.239.

Which relative viability does the source give for EPLC-272H here?
The relative viability was 0.33.

NCI-H3122 was tested. Which relative viability did it give?
Its relative viability is 0.391.

With NCI-H1915 as the cell line, how does the relative viability read?
Its relative viability is 0.391.

Which relative viability does the source give for NCI-H727 here?
Its relative viability is 0.654.

With NCI-H1975 as the cell line, how does the relative viability read?
Its relative viability is 0.714.

Which relative viability does the source give for HCC-366 here?
The relative viability was 0.0643.

How did the relative viability turn out when NCI-H2087 was run?
The relative viability was 0.254.

For LCLC-97TM1, which relative viability is on record?
Its relative viability is 0.287.

For NCI-H1993, which relative viability is on record?
Its relative viability is 0.504.

With PC-3 [JPC-3] as the cell line, how does the relative viability read?
The relative viability was 0.941.

Which relative viability does the source give for NCI-H2347 here?
Its relative viability is 0.344.

With LXF-289 as the cell line, how does the relative viability read?
Its relative viability is 0.116.

With NCI-H358 as the cell line, how does the relative viability read?
Its relative viability is 0.0962.

With LC-2-ad as the cell line, how does the relative viability read?
The relative viability was 0.422.

201T was tested. Which relative viability did it give?
The relative viability was 0.918.

How did the relative viability turn out when NCI-H1666 was run?
Its relative viability is 0.678.

NCI-H322M was tested. Which relative viability did it give?
The relative viability was 0.373.

Which relative viability does the source give for NCI-H1395 here?
Its relative viability is 0.762.

same assay, conditions: first compound 0.09487 µM

With NCI-H460 as the cell line, how does the relative viability read?
The relative viability was 0.374.

For H3255, which relative viability is on record?
Its relative viability is 0.609.

With NCI-H23 as the cell line, how does the relative viability read?
Its relative viability is 0.337.

With NCI-H838 as the cell line, how does the relative viability read?
The relative viability was 0.255.

Which relative viability does the source give for EPLC-272H here?
Its relative viability is 0.273.

For NCI-H3122, which relative viability is on record?
The relative viability was 0.374.

Which relative viability does the source give for NCI-H1915 here?
Its relative viability is 0.328.

Which relative viability does the source give for NCI-H727 here?
Its relative viability is 0.667.

How did the relative viability turn out when NCI-H1975 was run?
Its relative viability is 0.659.

How did the relative viability turn out when LK-2 was run?
The relative viability was 0.174.

For HCC-366, which relative viability is on record?
The relative viability was 0.104.

NCI-H2087 was tested. Which relative viability did it give?
The relative viability was 0.302.

LCLC-97TM1 was tested. Which relative viability did it give?
The relative viability was 0.249.

Which relative viability does the source give for NCI-H2405 here?
The relative viability was 0.647.

Which relative viability does the source give for NCI-H1993 here?
Its relative viability is 0.571.

PC-3 [JPC-3] was tested. Which relative viability did it give?
The relative viability was 0.827.

For NCI-H2347, which relative viability is on record?
Its relative viability is 0.621.

With LXF-289 as the cell line, how does the relative viability read?
Its relative viability is 0.203.

With NCI-H358 as the cell line, how does the relative viability read?
The relative viability was 0.106.

With LC-2-ad as the cell line, how does the relative viability read?
The relative viability was 0.447.

For 201T, which relative viability is on record?
The relative viability was 0.912.

For NCI-H1666, which relative viability is on record?
Its relative viability is 0.672.

How did the relative viability turn out when NCI-H322M was run?
Its relative viability is 0.446.

HARA was tested. Which relative viability did it give?
Its relative viability is 0.115.

With NCI-H1395 as the cell line, how does the relative viability read?
Its relative viability is 0.667.

same assay, conditions: first compound 0.3 µM

With NCI-H460 as the cell line, how does the relative viability read?
Its relative viability is 0.375.

How did the relative viability turn out when H3255 was run?
Its relative viability is 0.629.

For NCI-H1793, which relative viability is on record?
Its relative viability is 0.293.

With NCI-H23 as the cell line, how does the relative viability read?
The relative viability was 0.375.

NCI-H838 was tested. Which relative viability did it give?
The relative viability was 0.258.

How did the relative viability turn out when EPLC-272H was run?
The relative viability was 0.256.

With NCI-H3122 as the cell line, how does the relative viability read?
The relative viability was 0.367.

With NCI-H1915 as the cell line, how does the relative viability read?
Its relative viability is 0.41.

With NCI-H727 as the cell line, how does the relative viability read?
The relative viability was 0.793.

How did the relative viability turn out when NCI-H1975 was run?
Its relative viability is 0.689.

With LK-2 as the cell line, how does the relative viability read?
Its relative viability is 0.152.

HCC-366 was tested. Which relative viability did it give?
Its relative viability is 0.0995.

How did the relative viability turn out when NCI-H2087 was run?
Its relative viability is 0.264.

LCLC-97TM1 was tested. Which relative viability did it give?
Its relative viability is 0.186.

With NCI-H2405 as the cell line, how does the relative viability read?
The relative viability was 0.726.

With NCI-H1993 as the cell line, how does the relative viability read?
Its relative viability is 0.606.

For PC-3 [JPC-3], which relative viability is on record?
The relative viability was 0.929.

For NCI-H2347, which relative viability is on record?
The relative viability was 0.496.
